Experimental data published in patent US20060211628A1 (priority 2002, published 2006).

Experiments:
[1] = test system: endogenous reduced glutathione (GSH); assay: In vivo antioxidation: striatum/serum endogenous GSH after IP injection of compound A; set-up: species or system Balb/c mice; conditions: injected IP, 100-300 mg/kg, three hours post injection
Method: With reference now to FIG. 3. To this end, three groups of two months old Balb/c mice containing two animals in each group were injected intraperitonealy (IP) with 100-300 mg/kg body weight of compound A. Blood samples were drawn from the tail three hours post injection and then the animals were sacrificed and either the corpus striatum or the whole brain were removed and analyzed for GSH levels.
GSH levels were determined using the experimental procedures as described hereinbelow and/or the GSH-400 kit (Oxis International, Inc.).
Preparation of brain homogenates: Animals were rapidly killed and exsanguinated to remove excess blood from the brain. The brain of each animal was rinsed in a beaker containing water, lightly blotted to dry and were weighted. The striatums were transferred into a hand-homogenizer tube and each was homogenized using a constant number (e.g., 20) of up and down strokes of the hand-homogenizer pestle. Each of the homogenates was poured into a centrifuge tube and centrifuged for 10,000×g for 5 min. The supernatant was used for GSH determination as follows.
GSHAssay: For each measurement, 200 μl of sample were incubated with 20 μl DTNB [5,5′ dithio bis(2-nitrobenzoic acid)] for 1 hour in 37° C. Final absorbance was measured at 400 nm. Similar results were obtained using the GSH-400 kit. […]

[2] = Crossing the blood-brain-barrier: compound J level in brain extracts by fluorescent labeling and HPLC; assay type: in vivo, C57BL/6J mice; conditions: IP injection 0.25-4 mg, brain extracts 15 min later
Method: Detection of compound j (referred to in this Example also as CEA) was established using high performance liquid chromatography (HPLC). To this end, CEA was treated with a fluorescent thiolyte reagent (monobromobimane reagent) and analyzed on an HPLC column.
Crossing the blood-brain-barrier: In vivo experiments were carried out on C57BL/6J mice (15 grams) injected IP with compound J. After incubation (15 min, 60 min or 4 hours) the mice were anesthetized with ether and blood samples were drawn. Then mice underwent perfusion with 50 ml of saline, injected into the right ventricle. The levels of compound I in the brain and in the plasma were detected by selective fluorescent labeling using high performance liquid chromatography (HPLC).
Increasing amounts of compound J were injected IP and 15 min later, mice were perfused with saline and compound J levels in the brain extracts were determined by HPLC chromatography (FIG. 5b), as compared to a control, pure, uninjected compound J (FIG. 5a).

GSH = assay: Brain GSH levels after IP injection of compound J (HPLC); assay type: in vivo, C57BL/6J mice; conditions: brain extract after IP injection
MOG-induced EAE = assay: Prevention of MOG-induced experimental autoimmune encephalomyelitis (EAE); assay type: in vivo, C3H.SW female mice; conditions: 200 mg/kg IP twice a day plus 300 mg/kg in drinking water
Method: EAE was induced in C3H.SW female mice (4-6 weeks old, Harlen, Rehovot, Israel) by immunization with the peptide encompassing amino acids 35-55 of rat myelin oligodendrocyte glycoprotein (MOG). Synthesis was carried out by the Weizmann Institute Synthesis Unit, using a solid-phase technique on a peptide synthesizer (Applied Biosystems Inc., Foster City, Calif. City). Mice were injected subcutaneously at one site in the flank with a 200 μl emulsion containing 75 μg MOG peptide in complete Freund's adjuvant (CFA). An identical booster immunization was given at one site of the other flank one week later. Mice (n=16) were injected intraperitonealy with Compound J (200 mg/kg) twice a day and in addition, were given Compound J orally in the drinking water (300 mg/kg) on day 1 of the MOG injection and for additional 35 days post injection. Control mice (n=16) were injected twice a day with 200 mg of saline for the same time period. 0=no clinical symptom's; 1=loss of tail tonicity; 2=partial hind limb paralysis; 3=complete hind limb paralysis; 4=paralysis of four limbs; 5=total paralysis; 6=death.

[3] = test system: Neuroblastoma SHSY5Y (NB) cells; assay: Protection from oxidative stress in vitro, neutral red survival assay; assay type: cell-based; conditions: compound at 0.1 mM
Method: Protection from oxidative stress in vitro: Neuroblastoma SHSY5Y (NB) cells were maintained in Dulbeco's Modified Eagle's Medium (DMEM), supplemented with 8% FCS and 8% horse serum, penicillin (25 μg/ml), streptomycin (25 μg/ml), 2 mM L-glutamine and 400 μg/ml G418 (Gibco/BRL). For protection experiments cells were subcultured (in 2% serum) to poly-L-lysine-coated 96-well microtiter plates (Nunc), 100 μl of 5×10^5 cells/ml, CEA was applied to the cells in each well and 4 hours later DA, L-dopa (levodopa), 6-OHDA and MPP+ were added for 24 hours.
Survival was assayed by adding neutral red (0.34%, Sigma) to cells in DCCM-1 medium (0.1 ml/well, Bet-Haemek) and incubation for 2 hour at 37° C. The cells were then washed with cold PBS containing 10 mM MgCl2 and the dye was dissolved in 50% ethanol in 50% Somerson buffer (70 mM sodium citrate, 30 mM citric acid, 0.1 N HCl). ELISA reader (590 nm) was used to measure the remaining color intensity.

[4] = in vivo; cited from earlier work

For `CCOC(=O)[C@H](CS)NC(C)=O` [compound A, N-acetyl cysteine ethyl ester], the “Level of endogenous GSH in striatum” value [1] was “increases”.

In the case of `CC(=O)NC(CS)C(N)=O` (centres unmarked) [compound J], the “Compound J in the brain” value [2] is reported as “concentration-dependent increase”, the “GSH levels increase over untreated animals” value (GSH) is reported as “up to 46%” and the “Incidence and clinical severity of the disease” value (MOG-induced EAE) is reported as “markedly reduced”. For the same compound, the “Mice remaining disease free” value (MOG-induced EAE; day 1 to 35 days post injection, n=16) was 15 out of the 16, the “Mean of total clinical score (0-6 scale)” value (MOG-induced EAE; n=16, SE) was 0.1+0.1 and the “Protection of NB cells against the toxicity of DA, L-dopa, 6-OHDA (0.1-0.25 mM) and MPP+ (0.5-2 mM)” value [3] was “protect”.

In the case of `CC(=O)N[C@@H](CS)C(=O)O` [N-acetyl-cysteine], the “lethal dose 50% (LD50)” value [4] is given as 5,050 mg/kg.
